Reference: patent US11628186B2, “Method and composition for the reduction of viral replication, duration and spread of the COVID-19 and the flu” (priority 2017, dated 2023)

Columns and labels:
[1] = test system: patients with sinus & lung diseases including IPF and COPD; assay: Salts of pyruvate as 20 mM nasal sprays (Table IX)
From the text: They never tested the individual salts for their ability to reduce inflammation or increase lung functions.

[2] = test system: patients with sinus & lung diseases including IPF and COPD; assay: 20 mM sodium pyruvate nasal sprays with individual or combined ions (Table X); format: in vivo, human
From the text: This patent combined dozens of ingredients, including the use of enzyme, growth factors, sugars, nucleotide and vitamins, amino acids and sodium pyruvate, other nutrients and calcium chloride, magnesium chloride and calcium phosphate other ingredients to stimulate the growth of cartilage and collagen for knees and joints.

[3] = test system: isolated perfused rat lungs; assay: Incorporation of [2-(14)C] labeled pyruvate into lung surfactants; conditions: inhalation studies, without calcium, phosphate and magnesium
[4] = test system: patients with or without lung damage; assay: Controlled inhalation studies of 20 mM sodium pyruvate in saline; format: in vivo, human
Method: Sodium chloride is mainly used as nasal or lung moisturizer. […] They produce no change to FEV-1 or SaO2 measurements. It must be noted that there is a difference between people who have transient hypoxemia vs. one that has permanent hypoxemia. The patients respond differently to the inhalation of 20 mM sodium pyruvate in saline by itself without calcium, phosphate and magnesium. Sodium pyruvate formulations both given orally or by inhalation will increase SaO2 levels in people without lung injury to the alveoli structure especially the mitochondria that can synthesis the phospholipids needed for oxygen exchange and uptake. Transient hypoxemia is a self-correcting effect. It occurs in over exercising, mountain climbing etc. […] In patients with infections, i.e. CF and allergic Rhinitis, Nitric Oxide increase by over 400% over base line measurements with the use of the sodium pyruvate, calcium, phosphate and magnesium formula, needed to fight infections and lung cancer (see table IV).

[5] = test system: patients with various cancers and chronic Hypoxemia; assay: Cancer trial pilot study; format: in vivo, human; conditions: in saline, without calcium, phosphate and magnesium
Method: In eleven patients with various cancers and chronic Hypoxemia, five with lung cancer, including three with non-small cell lung cancer and six with various other cancers, […], which increased SaO2 levels in these patients to enhance the effect of the chemotherapy or radiation, and increased the synthesis of lung surfactants in lung alveoli cells to protect normal cells and help reduce hypoxia in cancer cells. These patients inhaled the formula one to two hours before they were treated with cancer drugs or radiation, given by current standard methods, and continued to inhale the surfactant enhancer formula twice a day for the eight weeks following the chemo therapy treatment. Because these patients are older, they often lack good nutritional eating habits, which effects their immune system. Thus, the patients were also given a proprietary diet high in a unique blend of antioxidants, and nutrients, that they consumed every day before and after chemo or radiation. Good nutrition is always a plus when patients undergo chemo or radiation as sited in numerous published articles. The diet specifically designed for patients with cancer and hypoxemia included calcium pyruvate, dicalcium phosphate and magnesium in their components. […]

[6] = test system: patients with lung diseases including COPD; assay: Comparison of inhaled salts of pyruvate, 5 ml of 5 mM solution (Table II)
[7] = 20 mM (0.22%) nasal spray in 0.9% sodium chloride
[8] = 20 mM sodium pyruvate nasal spray in saline with the listed ions

## CC(=O)C(=O)[O-].[Na+] [Sodium, sodium pyruvate]
[1]; [7]
  Increased in FEV-1%: 12.0%
  Irritation: none
  Percentage Increase in SaO2 over baseline: 2%
  Percentage increase of Nitric Oxide over baseline: 19.0%
  Relief of congestion, coughing and lung tightness: 6
[1]; 20 mM (0.22%) nasal spray, 1 most negative, 10 best
  Overall Rating 1-10: 7
[2]; [8]
  Increased in FEV-1%: 12.0%
  Irritation: None
  Percentage Increase in SaO2 over baseline: 2%
  Percentage increase of Nitric Oxide over baseline: 20.0%
  Relief of congestion, coughing and lung tightness: 6
[2]; 1 most negative, 10 best
  Overall Rating 1-10: 7
[3]
  incorporation into synthesized phospholipids: not incorporated into synthesized phospholipids
[4]; Patients with lung damage, like in smokers, 20 mM without calcium, phosphate and magnesium
  SaO2 levels: did not show an increase SaO2 levels
[4]; patients with no lung injuries or disease, after exercising, 20 mM in saline
  increase of SaO2, average: 3%
[5]
  raises nitric oxide: 19%
[6]; 5 ml of 5 mM solution in saline, inhaled
  Increased in FEV-1%: 2.0%
[6]; 5 ml of 5 mM solution, inhaled
  Irritation: none
  Percentage Increase in SaO2 over baseline: 1%
  Percentage increase of Nitric Oxide over baseline: 19.0%
  Relief of congestion, coughing and lung tightness: 5
[6]; 5 ml of 5 mM solution, 1 most negative, 10 best
  Overall Rating 1-10: 8
